Reference: patent US4716228A, “Condensed 2-substituted thiazole derivatives” (Farmitalia Carlo Erba S.p.A., priority 1985, dated 1987)

What was measured:
[1] = test system: acetyl salicylic acid (ASA) induced gastric ulcers; experiment: inhibition of acetyl salicylic acid (ASA) induced gastric ulcers in rats; type: in vivo; settings: po; rat, p.o.; read-out: ASA Test ED50
Experimental: The activity of these compounds was assessed in rats in anti-ulcer and anti-secretory tests. The anti-ulcerogenic activity of the compounds of the invention is shown, for example, by the fact that they are active in the test of the inhibition of acetyl salicylic acid (ASA) induced gastric ulcers in rats (M. Hemmati et al., Pharmacology, 9, 374, 1973).

stress ulcers = experiment: inhibition of stress ulcers in rats (restraint in water at 23° C. for 4 hours); type: in vivo; settings: po, rat, p.o., read-out: Stress Test ED50
Experimental: The anti-ulcerogenic activity of the compounds of the invention is shown also by the fact that they are active in the test of the inhibition of stress ulcers in rats (restraint in water at 23° C. for 4 hours), according to the method of M. Usardi et al. (Prostaglandins, 8, 43, 1974).

[2] = test system: duodenal ulcers, induced by cysteamine; experiment: inhibition of duodenal ulcers induced in rats by cysteamine; type: in vivo; settings: po; rat, p.o.; inhibition of ulcer index; read-out: Cysteamine Test ED50
Experimental: The inhibition of duodenal ulcers, induced in rats by cysteamine, was evaluated for the test of compounds as percentage inhibition of ucler index [sum of the lesioned areas per rat (mm^2)] according to the method of Fuji Y. et at, Jap. J. Pharm. 25, 663, 1975.

gastric secretion = experiment: gastric anti-secretory activity, pylorus ligature technique; type: in vivo, rats; settings: rat, i.d., read-out: Antisecretory activ. test ED50
Experimental: The gastric anti-secretory activity of the compounds of the invention was evaluated in rats by the pylorus ligature technique (H. Shay et al., Gastroenterology 5, 43, 1945).

histamine H2-receptor = histamine H2-receptor antagonist activity in vitro on the guinea pig right atrium; type: cell-based; settings: screening dose 1.10^-5 M
Experimental: The compounds of the invention were assayed for histamine H2 -receptor antagonist activity in vitro on the guinea pig right atrium. Male guinea pigs were killed by a blow on the head and the heart was quickly excised and placed in oxygenated Ringer Locke solution of the following composition (g/l): NaCl 9, KCl 0.42, CaCl2 0.24, NaHCO3 0.5, Glucose 1. Atria were dissected away from the rest of the heart, freed from connective tissue, suspended in 20 ml organ bath containing Ringer Locke solution thermoregulated at 37° C., and carboxygenated with 95% O2 and 5% CO2. Atria spontaneously beating were allowed to adjust to the bath conditions for at least 30 minutes prior to the experiment. Histamine was added to the bath in cumulative fashion starting from 3×10^-7 M till 1×10^-4 M. The histamine-induced increase in atrial rate was allowed to plateau before the next successive concentration was added. After washing and waiting for the recovery of atria rate, compounds were added 5 minutes before repeating the cumulative dose response curve with histamine.
A compound is considered an H2 -receptor antagonist if it is able to shift the dose response curve of histamine to the right of the concentration <1×10^-5 M.

CC(C)NC(=O)N1CCc2nc(N=C(N)N)sc2C1 [Example 1, 2-Guanidino-5-isopropylcarbamoyl-4,5,6,7-teteahydrothiazolo-[5,4-c]pyridine]
ED50 [1]: 0.017 mg/kg
ED50 (stress ulcers): 2.9 mg/kg
ED50 [2]: 0.4 mg/kg
ED50 (gastric secretion): 0.33 mg/kg
Anti-H2 activity test (histamine H2-receptor): active
